Results as given in paper PMC12298822 (Molecules, 2025).

Tests used:
[1] = cited from earlier work
[2] = cited from earlier work; remark: listed apart in the source
[3] = Pharmacokinetic study after a single oral 100 mg sitagliptin tablet in healthy Korean male subjects (LC-MS/MS of plasma); format: in vivo, human; conditions: single oral 100 mg tablet, fasting
Experimental: (§1) Human plasma samples were removed from a −70 °C deep freezer and thawed at room temperature. After vortexing and centrifugation, 100 µL of plasma was transferred into a glass tube. To this, 20 µL of the IS (1000 ng/mL) was added, followed by the addition of 2 mL of MTBE as the extraction solvent. The mixture was vortexed vigorously for 10 min and centrifuged at 1699 g for 10 min at 4 °C. The upper organic layer (2 mL) was carefully transferred to a new tube and evaporated to dryness under a nitrogen stream at 40 °C. The dried residue was reconstituted with a total volume of 1 mL of a reconstitution solvent composed of 0.01% formic acid in DW and 100% ACN (1:1, v/v), vortexed for 10 min, and centrifuged again at 1699× g. A 5 µL aliquot of the clear supernatant was injected into the LC–MS/MS system for analysis.
This study procedures were conducted with the principles of the Helsinki Declaration (World Medical Association Declaration of Helsinki 2000) and Korean Good Clinical Practice guidelines. The study was approved by the Institutional Review Board (IRB) of Kyung Hee University Hospital (IRB No. KHUH 2023-07-039; approval date: 20 October 2023). […] Blood samples were collected using EDTA-K2 anticoagulant tubes at various time points: pre-dose (0 h), and at 0.5, 1, 1.5, 2, 2.5, 3, 4, 6, 8, 16, 24, and 48 h following administration. Once collected, the blood samples were centrifuged at 3000 rpm for 10 min to separate the plasma, which was then transferred to labeled tubes and stored at −70 °C until analysis. All clinical procedures, including dosing, sampling, and analysis, were conducted consistently across all subjects.
Pharmacokinetic parameters such as Cmax (maximum plasma concentration), Tmax (time to reach Cmax), T1/2 (elimination half-life), and CL/F (apparent oral clearance) were determined from individual plasma concentration–time profiles. Non-compartmental analysis for extravascular administration was performed using BA Cal 2007 software (MFDS, version 1.0.0). This analysis calculated parameters including AUClast (area under the concentration–time curve from 0 to 48 h) and AUCinf (area under the curve extrapolated to infinity). The statistical analysis of the pharmacokinetic data was conducted using K-BE Test II software (version 2.0.2), which was developed and distributed by the MFDS [26].

[4] = Stability of stock and working solutions; format: physicochemical
Experimental: These stock solutions were diluted with 50% acetonitrile to prepare working standard solutions. The working solutions’ calibration curve (CC) concentrations were set at 50, 100, 500, 1000, 2500, 5000, and 10,000 ng/mL, while the quality control (QC) concentrations were 150, 3000, and 8000 ng/mL. The IS concentration was prepared at 1000 ng/mL. All working stock solutions were prepared and stored at −20 °C until use. […] Consequently, the final calibration curve range was 5–1000 ng/mL. […] All results were within the acceptable deviation limit of ±15% from the nominal concentrations. To assess the plasma stability of the analyte, low, medium, and high QC levels (n = 3) were tested under various conditions, including refrigerated storage at 4 °C for 24 h, deep-freezing at −70 °C for 7 h, three freeze–thaw cycles (between −70 °C and room temperature), and storage in the autosampler at 10 °C for 30 h. All measured concentrations under these conditions met the predefined acceptance criteria of ±15%, confirming the robustness and reliability of the analytical method.

[5] = 100 mg dose; cited from earlier work
[6] = Stability of sitagliptin in human plasma samples under storage and handling conditions; format: in vitro ADME
Experimental: as §1
The stability of both stock and working solutions was evaluated at low and high QC levels (n = 3) under storage conditions of room temperature (25 °C) for 3 h and −20 °C for 7 h. All results were within the acceptable deviation limit of ±15% from the nominal concentrations. To assess the plasma stability of the analyte, low, medium, and high QC levels (n = 3) were tested under various conditions, including refrigerated storage at 4 °C for 24 h, deep-freezing at −70 °C for 7 h, three freeze–thaw cycles (between −70 °C and room temperature), and storage in the autosampler at 10 °C for 30 h. All measured concentrations under these conditions met the predefined acceptance criteria of ±15%, confirming the robustness and reliability of the analytical method.

N[C@@H](CC(=O)N1CCn2c(nnc2C(F)(F)F)C1)Cc1cc(F)c(F)cc1F [Sitagliptin, 7-[(3R)-3-amino-1-oxo-4-(2,4,5-trifluorophenyl)butyl]-5,6,7,8-tetrahydro-3-(trifluoromethyl)]
binding to plasma proteins [1]: 38%
apparent volume of distribution [2]: approximately 198 L
fraction of total clearance by hepatic metabolism (CYP3A4 and CYP2C8) [2]: < 16%
oral bioavailability [2]: approximately 87%
half-life ([3]; human, plasma, n = 8, mean): 8.47 ± 3.08 h
Cmax ([3]; human, n = 8, plasma, mean): 373 ng/mL
Tmax ([3]; human, n = 8, plasma, mean): 2.06 h
AUClast ([3]; n = 8, 0 to 48 h, mean): 2863.82 ng·h/mL
AUCinf ([3]; n = 8, extrapolated to infinity, mean): 3010.56 ± 302.61 ng·h/mL
Solution stability (%), mean ([4]; stock solution, room temperature (3 h), 15 ng/mL level, vs freshly prepared): 100.89%
Solution stability (%), mean ([4]; stock solution, room temperature (3 h), 800 ng/mL level, vs freshly prepared): 99.25%
Solution stability (%), mean ([4]; working solution, room temperature (7 h), 15 ng/mL level): 100.19%
Solution stability (%), mean ([4]; working solution, room temperature (7 h), 800 ng/mL level): 95.93%
maximum concentration (Cmax) [5]: 327.98 ng/mL
terminal half-life (T1/2) [5]: 8.92 h
time to reach maximum concentration (Tmax) [5]: 2.68 h
Plasma sample stability (%), mean ([6]; human plasma, deep freeze (7 h, −70 °C), 15 ng/mL): 99.61%
Plasma sample stability (%), mean ([6]; human plasma, deep freeze (7 h, −70 °C), 300 ng/mL): 96.77%
Plasma sample stability (%), mean ([6]; human plasma, deep freeze (7 h, −70 °C), 800 ng/mL): 97.96%
Plasma sample stability (%), mean ([6]; human plasma, freeze–thaw (3 cycles), 15 ng/mL): 103.73%
Plasma sample stability (%), mean ([6]; human plasma, freeze–thaw (3 cycles), 300 ng/mL): 98.57%
Plasma sample stability (%), mean ([6]; human plasma, freeze–thaw (3 cycles), 800 ng/mL): 97.71%
Plasma sample stability (%), mean ([6]; human plasma, refrigeration (7 h, 4 °C), 15 ng/mL): 100.61%
Plasma sample stability (%), mean ([6]; human plasma, refrigeration (7 h, 4 °C), 300 ng/mL): 100.02%
Plasma sample stability (%), mean ([6]; human plasma, refrigeration (7 h, 4 °C), 800 ng/mL): 96.29%
Plasma sample stability (%), mean ([6]; human plasma, room temperature (7 h), 15 ng/mL): 102.57%
Plasma sample stability (%), mean ([6]; human plasma, room temperature (7 h), 300 ng/mL): 97.43%
Plasma sample stability (%), mean ([6]; human plasma, room temperature (7 h), 800 ng/mL): 96.99%
Plasma sample stability (%), mean ([6]; processed (LLE) plasma sample, autosampler (30 h, 10 °C), 15 ng/mL): 105.20%
Plasma sample stability (%), mean ([6]; processed (LLE) plasma sample, autosampler (30 h, 10 °C), 300 ng/mL): 97.37%
Plasma sample stability (%), mean ([6]; processed (LLE) plasma sample, autosampler (30 h, 10 °C), 800 ng/mL): 96.83%
